Earlier results in patent US20120087859A1, “NANOCARRIER HAVING ENHANCED SKIN PERMEABILITY, CELLULAR UPTAKE AND TUMOUR DELIVERY PROPERTIES” (GWANGJU INSTITUTE OF SCIENCE AND TECHNOLOGY, priority 2010, published 2012).

Test system: NIH/3T3 fibroblasts
Conditions: cultured NIH/3T3 fibroblasts in vitro

Q: For `CC(C)(O)C(=O)c1ccc(OCCO)cc1` [Irgacure 2959, 2-hydroxy-1-[4-(2-hydroxyethoxy)phenyl]-2-methyl-1-propanone], which cytotoxicity is on record?
A: Its cytotoxicity is “almost non-cytotoxic”.
